{
  "source": "patent US20260265248A1",
  "about": "“NOVEL PD-L1 INHIBITORS” (AFFIRMA BIOTECH S. L., priority 2023, published 2026)",
  "data": [
    {"target": "T1, PD-1/PD-L1 (Homo sapiens, UniProt Q9NZQ7)", "T1 construct": "purchased CisBio", "T1 sequence (Q9NZQ7 19-238 limits assumed)": "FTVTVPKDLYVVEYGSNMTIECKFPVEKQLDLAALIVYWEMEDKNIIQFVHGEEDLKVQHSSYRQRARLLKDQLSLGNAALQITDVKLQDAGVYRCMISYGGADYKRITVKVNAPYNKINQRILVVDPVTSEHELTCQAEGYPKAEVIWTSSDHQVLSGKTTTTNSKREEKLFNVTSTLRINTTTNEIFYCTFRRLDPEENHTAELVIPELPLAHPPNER", "assay": "PD1-PDL1 HTRF assay", "settings": "PD-1/PD-L1 homogenous time-resolved fluorescence (HTRF) binding assay; Tag1-PDL1 5 nM, Tag2-PD1 50 nM", "from_the_text": "The CisBio HTRF assay kit, purchased from CisBio only, was employed to determine the IC50 values of compounds. The PD1-PDL1 HTRF assay measures the interactions between the two proteins, PD1 and PDL1. The interaction is detected by using anti-Tag1 labeled with Europium (HTRF donor) which binds to PDL1 and anti-Tag2 labeled with XL665 (HTRF acceptor) which binds to PD1. When the two antibodies are in proximity, the excitation of the donor fluorophore results in FRET emission from the acceptor fluorophore. The presence of inhibitors for such an interaction result in reduction of HTRF signal.\nThe assay was conducted in 96-well white assay plates. All the reagents, including Tag1-PDL1, Tag2-PD1, Anti-Tag1-PDL1, Anti-Tag2-PD1 were thawed and diluted with PPI Europium Detection buffer to achieve the desired concentration as per the manufacturer's protocol. A 1000 μM stock solution of test inhibitors was prepared in DMSO. The stock solution was diluted in DMSO to prepare 8 concentrations (1000-0.001 μM). These stock solutions were further diluted in PPI Europium detection buffer to prepare 8 working stock solutions (100-0.0001 μM). To the 96-well plate, 2 μL of the test inhibitor working stock solutions were added followed by 4 μL of Tag1-PDL1 (5 nM) and 4 μL of Tag2-PD1 (50 nM). The plate was incubated at room temperature for 15 min. Subsequently, 10 μL of pre-mixed Anti-Tag1-PDL1 and Anti-Tag2-PD1 solution was added. The plate was sealed and incubated at room temperature for 1 h. The HTRF signal was read on Perkin Elmer Envision plate reader using excitation wavelength of 320 nm, emission wavelengths of 620 nm and 665 nm. Results were obtained by calculating the ratio of signal from acceptor at 665 nm to that of signal from donor at 620 nm multiplied by […]. The IC50 values were determined by the Hill equation using GraphPad Prism software.", "units": {"IC50": "nM"}, "values": [
      {"smiles": "Cc1c(-c2ccn3c(-c4ccc(CN5CCC[C@@H]5C(=O)O)cc4)nnc3c2)cccc1-c1cccc(-c2cnc(CNCCO)cn2)c1C", "note": "[Example 63, (4-(7-(3′-(5-(((2-hydroxyethyl)amino)methyl)pyrazin-2-yl)-2,2′-dimethyl-[1,1′-biphenyl]-3-yl)-[1,2,4]triazolo [4,3-α]pyridin-3-yl)benzyl)-D-proline]", "IC50": "10 to 100"},
      {"smiles": "Cc1c(NC(=O)c2ccc(CNCCO)cc2)cccc1-c1cccc(-c2ccn3nc(CNCCO)nc3c2)c1C", "note": "[Example 101, 4-(((2-hydroxyethyl)amino)methyl)-N-(3′-(2-(((2-hydroxyethyl)amino)methyl)-[1,2,4]triazolo[1,5-a]pyridin-7-yl)-2,2′-dimethyl-[1,1′-biphenyl]-3-yl)benzamide]", "IC50": "≤ 10"},
      {"smiles": "Cc1c(-c2ccc(CNCCO)cc2)cccc1-c1cccc(-c2ccn3nc(CNC[C@@H]4CCC(=O)N4)nc3c2)c1C", "note": "[Example 102, (S)-5-((((7-(4″-(((2-hydroxyethyl)amino)methyl)-2,2′-dimethyl-[1,1′:3′,1″-terphenyl]-3-yl)-[1,2,4]triazolo[1,5-a]pyridin-2-yl)methyl)amino)methyl) pyrrolidin-2-one]", "IC50": "10 to 100"},
      {"smiles": "Cc1c(-c2ccccc2)cccc1-c1ccn2c(-n3ccc(C(=O)NCC(=O)O)n3)cnc2c1", "note": "[Example 45, (1-(7-(2-methyl-[1,1′-biphenyl]-3-yl)imidazo[1,2-a]pyridin-3-yl)-1H-pyrazole-3-carbonyl)glycine]", "IC50": "100 to 1000"},
      {"smiles": "CC(=O)NCCNC(=O)c1ccn(-c2cnc3cc(-c4cccc(-c5ccccc5)c4C)ccn23)n1", "note": "[Example 46, N-(2-acetamidoethyl)-1-(7-(2-methyl-[1,1′-biphenyl]-3-yl)imidazo[1,2-a]pyridin-3-yl)-1H-pyrazole-3-carboxamide]", "IC50": "100 to 1000"},
      {"smiles": "Cc1c(-c2ccccc2)cccc1-c1ccn2c(-c3ccc(CNCCC(=O)O)cc3)cnc2c1", "note": "[Example 18, 3-((4-(7-(2-methyl-[1,1′-biphenyl]-3-yl)imidazo[1,2-a]pyridin-3-yl)benzyl)amino)propanoic acid]", "IC50": "100 to 1000"},
      {"smiles": "Cc1c(-c2ccc3c(c2)OCCO3)cccc1-c1ccn2c(-c3ccc(CN4CC[C@@H]4C(=O)O)cc3)cnc2c1", "note": "[Example 29, (R)-1-(4-(7-(3-(2,3-dihydrobenzo[b][1,4]dioxin-6-yl)-2-methylphenyl)imidazo[1,2-a]pyridin-3-yl)benzyl)azetidine-2-carboxylic acid]", "IC50": "100 to 1000"},
      {"smiles": "Cc1c(-c2ccc3c(c2)OCCO3)cccc1-c1ccn2c(-c3ccc(CN4C[C@@H](C(=O)O)C[C@H]4O)cc3)cnc2c1", "note": "[Example 38, (3S,5R)-1-(4-(7-(3-(2,3-dihydrobenzo[b][1,4]dioxin-6-yl)-2-methylphenyl)imidazo[1,2-a]pyridin-3-yl)benzyl)-5-hydroxypyrrolidine-3-carboxylic acid]", "IC50": "100 to 1000"},
      {"smiles": "Cc1c(-c2ccc(CNCCO)cc2)cccc1-c1cccc(-c2ccn3c(CNCCO)nnc3c2)c1C", "note": "[Example 91, 2-(((7-(4″-(((2-hydroxyethyl)amino)methyl)-2,2′-dimethyl-[1,1′:3′,1″-terphenyl]-3-yl)-[1,2,4]triazolo[4,3-α]pyridin-3-yl)methyl)amino)ethan-1-ol]", "IC50": "10 to 100"},
      {"smiles": "Cc1c(-c2ccccc2)cccc1-c1ccn2c(-c3ccc(CNCCS(=O)(=O)O)cc3)cnc2c1", "note": "[Example 19, 2-((4-(7-(2-methyl-[1,1′-biphenyl]-3-yl)imidazo[1,2-a]pyridin-3-yl)benzyl)amino)ethane-1-sulfonic acid]", "IC50": "100 to 1000"},
      {"smiles": "Cc1c(NC(=O)c2ccc(CNCCO)cc2)cccc1-c1cccc(-c2ccn3c(CNCCO)nnc3c2)c1C", "note": "[Example 93, 4-(((2-hydroxyethyl)amino)methyl)-N-(3′-(3-(((2-hydroxyethyl)amino)methyl)-[1,2,4]triazolo[4,3-α]pyridin-7-yl)-2,2′-dimethyl-[1,1′-biphenyl]-3-yl)benzamide]", "IC50": "100 to 1000"},
      {"smiles": "Cc1c(-c2ccc3c(c2)OCCO3)cccc1-c1ccn2c(-c3ccc(CN4CCOCC4C(=O)O)cc3)cnc2c1", "note": "(single isomer, unassigned) [Example 35, 4-(4-(7-(3-(2,3-dihydrobenzo[b][1,4]dioxin-6-yl)-2-methylphenyl)imidazo[1,2-a]pyridin-3-yl)benzyl)morpholine-3-carboxylic acid]", "IC50": "100 to 1000"},
      {"smiles": "O=C1CC[C@@H](CNCc2ccc(-c3cccc(-c4cccc(-c5ccn6c(CNC[C@@H]7CCC(=O)N7)nnc6c5)c4Cl)c3Cl)cc2)N1", "note": "[Example 97, (S)-5-((((21,2″-dichloro-3″-(3-(((((S)-5-oxopyrrolidin-2-yl)methyl)amino)methyl)-[1,2,4]triazolo[4,3-α]pyridin-7-yl)-[1,1′:3′,1″-terphenyl]-4-yl)methyl)amino)methyl)pyrrolidin-2-one]", "IC50": "≤ 10"},
      {"smiles": "OCCNCc1ccc(-c2cccc(-c3cccc(-c4ccn5c(CNCCO)nnc5c4)c3Cl)c2Cl)cc1", "note": "[Example 96, 2-(((2′,2″-dichloro-3″-(3-(((2-hydroxyethyl)amino)methyl)-[1,2,4]triazolo[4,3-a]pyridin-7-yl)-[1,1′:3′,1″-terphenyl]-4-yl)methyl)amino)ethan-1-ol]", "IC50": "≤ 10"},
      {"smiles": "Cc1c(-c2ccccc2)cccc1-c1ccn2c(-c3ccc(CN4CCCCC4C(=O)O)cc3)nnc2c1", "note": "(centres unmarked) [Example 52, 1-(4-(7-(2-methyl-[1,1′-biphenyl]-3-yl)-[1,2,4]triazolo[4,3-a]pyridin-3-yl)benzyl)piperidine-2-carboxylic acid]", "IC50": "100 to 1000"},
      {"smiles": "Cc1c(-c2ccc(CNCCO)cc2)cccc1-c1cccc(-c2ccn3c(NCCO)nnc3c2)c1C", "note": "[Example 85, 2-(((3″-(3-((2-hydroxyethyl)amino)-[1,2,4]triazolo[4,3-a]pyridin-7-yl)-2′,2″-dimethyl-[1,1′:3′,1″-terphenyl]-4-yl)methyl)amino)ethan-1-ol]", "IC50": "100 to 1000"},
      {"smiles": "Cc1c(Nc2nccc3cc(CN4CC[C@@H](O)C4)cnc23)cccc1-c1cccc(-c2ccn3c(-c4ccc(CN5CCC[C@@H]5C(=O)O)cc4)nnc3c2)c1C", "note": "[Example 80, (4-(7-(3′-((3-(((R)-3-hydroxypyrrolidin-1-yl)methyl)-1,7-naphthyridin-8-yl)amino)-2,2′-dimethyl-[1,1′-biphenyl]-3-yl)-[1,2,4]triazolo[4,3-α]pyridin-3-yl)benzyl)-D-proline]", "IC50": "≤ 10"},
      {"smiles": "Cc1c(NC(=O)c2ccc(CNCCO)cn2)cccc1-c1cccc(-c2ccn3c(CNCCO)nnc3c2)c1C", "note": "[Example 92, 5-(((2-hydroxyethyl)amino)methyl)-N-(3′-(3-(((2-hydroxyethyl)amino)methyl)-[1,2,4]triazolo[4,3-a]pyridin-7-yl)-2,2′-dimethyl-[1,1′-biphenyl]-3-yl)picolinamide]", "IC50": "≤ 10"},
      {"smiles": "OCCNCc1nc2cc(-c3cccc(-c4cccc(-c5ccc(CN6CCC[C@H]6CO)cc5)c4Cl)c3Cl)ccn2n1", "note": "[Example 113, (S)-2-(((7-(2,2′-dichloro-4″-((2-(hydroxymethyl)pyrrolidin-1-yl)methyl)-[1,11:31,1″-terphenyl]-3-yl)-[1,2,4]triazolo[1,5-a]pyridin-2-yl)methyl)amino)ethan-1-ol]", "IC50": "≤ 10"},
      {"smiles": "Cc1c(-c2ccc(CNC[C@@H]3CCC(=O)N3)cc2)cccc1-c1cccc(-c2ccn3c(CNC[C@@H]4CCC(=O)N4)nnc3c2)c1C", "note": "[Example 90, (S)-5-((((2′,2″-dimethyl-3″-(3-(((((S)-5-oxopyrrolidin-2-yl)methyl)amino)methyl)-[1,2,4]triazolo[4,3-a]pyridin-7-yl)-[1,1′:3′,1″-terphenyl]-4-yl)methyl)amino)methyl)pyrrolidin-2-one]", "IC50": "≤ 10"}
    ]}
  ]
}
